Measurements from paper PMC11842588, “A first-in-class selective inhibitor of ERK1/2 and ERK5 overcomes drug resistance with a single-molecule strategy” (Signal Transduction and Targeted Therapy, 2025).
Values joined by “and” are separate entries in the source; they are usually repeats but may differ in a detail not shown here. Equal values may be shown once.

Key:
ERK1 = ERK1 (Homo sapiens, UniProt P27361); test: Isothermal titration calorimetry (ITC) assay; type: binding; details: 25 °C
Procedure: (§1) The full-length human ERK1 or ERK2 with His-tag was cloned into a pET28a vector. hERK1/2 were expressed in Escherichia coli BL21(DE3), and then were purified using sequential Ni-NTA and Superdex 200 column steps. The SEC purified sample was then concentrated to 10 mg/ml and stored at −80 °C with buffer containing 20 mM HEPES pH 7.5, 150 mM NaCl. ERK5 (residues 48–395) containing His and GST tags was cloned into the pFastBac vector, and the recombinant plasmid was extracted. The recombinant plasmid was transformed into the DH10bac strain, and monoclonal was selected for culture. The recombinant Bacmid was then extracted according to the instructions of the Baculovirus Shuttle Vector Bacmid Mini Preparation Kit (Beyotime) and validated by PCR. 1 × 10^6/well Sf9 cells were counted for transfection and then amplified to obtain P3 ERK5 recombinant baculovirus. It was added to 2 × 10^6/mL Sf9 cells and incubated at 27 °C for 72 h on a shaker to express ERK5. Cells were lysed and supernatant was collected on a Ni-NTA for purification, and a 250 mM imidazole eluate was collected. […]
(§2) Calorimetric experiments were carried on an Affinity ITC (Waters, Shanghai) with 1 mM SKLB-D18 and 0.1 mM ERK1/2/5. […] The data were analyzed with the NanoAnalyze software employing a single binding site model. […]

ERK2 = ERK2 (Homo sapiens, UniProt P28482); test: Isothermal titration calorimetry (ITC) assay; type: binding; details: 25 °C
Procedure: as §1, §2

BT549 cells = test: MTT cell viability assay; type: cell-based; details: Homo sapiens, BT-549, 72 h
Procedure: (§3) MDA-MB-468 and MDA-MB-436 cells were cultured in Leibovitz’s L-15 medium supplemented with 10% fetal bovine serum. […] All of the cells were cultured at 37 °C in a humidified atmosphere containing 5% CO2.
(§4) Cancer cells were seeded in a density in 96-well plates (2 × 10^3 cells per well). After incubation for 24 h, cancer cells were treated with compounds (0–20 μM) for 72 h.

MDA-MB-231 cells = test: MTT cell viability assay; type: cell-based
Procedure: as §3, §4

MDA-MB-436 cells = test: MTT cell viability assay; type: cell-based; details: Homo sapiens, 72 h
Procedure: as §3, §4

MDA-MB-468 cells = test: MTT cell viability assay; type: cell-based
Procedure: as §3, §4

[1] = Liver microsome metabolic stability; type: in vitro ADME
Procedure: An appropriate amount of SD rat and human liver microsomal solution was incubated at 37 °C with a specified concentration of candidate compounds for 5 min, and then NADPH reaction system was added to initiate metabolic reaction. The reaction was terminated at a series of time points by adding acetonitrile solution containing an internal standard compound. Centrifuge at 12,000 rpm for 20 min, take the supernatant solution, and place it in a vacuum centrifuge to dry. After acetonitrile was dissolved, the supernatant solution was centrifugated, and the remaining compounds were quantified by LC-MS to evaluate the metabolic stability of liver microsomes.

[2] = Caco-2 bidirectional transport; type: in vitro ADME; details: human
Procedure: (§5) Caco-2 cells were inoculated in a Transwell chamber with a pore size of 0.4 μm, and cultured for 15–20 days, the formation of the monolayer cell model was verified by the permeability determination of fluorescein sodium. Then a certain concentration of culture-medium containing candidate compounds was added to the upper and lower sides of different groups of cells, and the culture-medium at the corresponding position was absorbed after the specified time. After the internal standard compound was added, the content of candidate compounds was determined by LC-MS/MS to investigate the apparent permeability and effection rate, and to analyze the bidirectional transport characteristics of candidate compounds in the Caco-2 cell monolayer model.

[3] = system: Caco-2 cell monolayer model; test: Caco-2 bidirectional transport; type: in vitro ADME; details: Caco-2, 120 min
Procedure: as §5

MEK1/2 and MEK5 = test: Immunoblotting of upstream MEK activity; type: cell-based; details: up to 5 μM, 24 h
Procedure: Then, the cells were washed twice with PBS and stimulated with cell lysis buffer. After 13,000 rpm centrifugation for 20 min, an enhanced bicinchoninic acid (BCA) protein assay kit was (Beyotime Biotechnology, Jiangsu, China) used to quantify the protein level of the supernatural. […] Furthermore, membranes were blocked with 5% skim milk. The membranes were incubated by the corresponding primary antibodies. After being washed twice with TBST solution, the membranes were incubated with horseradish peroxidase (HRP)-conjugated secondary antibodies and visualized by employing ECL ([…]) as the HRP substrate.

MAPK2(h) = test: Kinase profiling; type: biochemical, human; details: 1 μM
Procedure: 380 kinases inhibitory activities of SKLB-D18 were conducted by Eurofins Cerep SA. The result was illustrated by kinase tree (http://www.kinhub.org/kinmap/).

Sequence of ERK1 (P27361 whole entry, the tested form may be a part): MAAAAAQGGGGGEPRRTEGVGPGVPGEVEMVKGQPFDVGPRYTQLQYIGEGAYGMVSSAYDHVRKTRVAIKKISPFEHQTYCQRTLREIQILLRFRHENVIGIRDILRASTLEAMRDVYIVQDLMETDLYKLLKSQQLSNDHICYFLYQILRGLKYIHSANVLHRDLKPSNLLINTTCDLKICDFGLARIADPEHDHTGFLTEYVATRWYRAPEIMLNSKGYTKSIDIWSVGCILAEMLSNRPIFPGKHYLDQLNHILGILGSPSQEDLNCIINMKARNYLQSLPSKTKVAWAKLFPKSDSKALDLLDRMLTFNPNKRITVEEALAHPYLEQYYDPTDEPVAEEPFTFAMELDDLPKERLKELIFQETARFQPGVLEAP
Sequence of ERK2 (P28482 whole entry): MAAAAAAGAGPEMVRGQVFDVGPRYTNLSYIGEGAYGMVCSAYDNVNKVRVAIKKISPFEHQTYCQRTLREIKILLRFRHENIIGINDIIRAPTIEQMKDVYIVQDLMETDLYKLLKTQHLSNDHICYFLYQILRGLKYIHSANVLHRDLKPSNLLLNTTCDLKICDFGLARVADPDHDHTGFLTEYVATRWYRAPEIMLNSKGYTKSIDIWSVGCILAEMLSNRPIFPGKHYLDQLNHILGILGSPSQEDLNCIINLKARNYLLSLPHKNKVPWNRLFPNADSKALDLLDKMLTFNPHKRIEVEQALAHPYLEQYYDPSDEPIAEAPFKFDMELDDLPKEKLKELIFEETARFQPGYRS

## CN(C)Cc1cccc(Nc2ncc(Cl)c(-c3csc(C(=O)NN4CCOCC4)c3)n2)c1 [SKLB-D18, 4-(5-chloro-2-((3-((dimethylamino)methyl)phenyl)amino)pyrimidin-4-yl)-N-morpholinothiophene-2-carboxamide]
ERK1
  Kd: 127 nM
ERK2
  Kd: 210 nM
BT549 cells
  IC50: 3210 ± 340 nM
MDA-MB-231 cells; 10 μM
  Anti-proliferative activity (10 μM, %) MDA-MB-231: 93.44 ± 1.21%
MDA-MB-231 cells; Homo sapiens, MDA-MB-231, read-out: IC50 MDA-MB-231, MTT, 72 h
  IC50: 930 ± 110 nM
MDA-MB-436 cells
  IC50: 2310 ± 290 nM
MDA-MB-468 cells; 10 μM
  Anti-proliferative activity (10 μM, %) MDA-MB-468: 92.18 ± 0.93%
MDA-MB-468 cells; Homo sapiens, MDA-MB-468, MTT, 72 h
  IC50: 1050 ± 130 nM
[1]; SD rat liver microsomes
  Residual rate (%): 25.8%
  T1/2: 32.51 min
  microsomal CLint: 42.6 µL/min/mg
[1]; SD, rat, liver microsomes
  half-life: 32.5 min
[1]; human liver microsomes
  Residual rate (%): 69.42%
  half-life: 91.6 min
  microsomal CLint: 15.1 µL/min/mg
[2]; Caco-2, 30 min, read-out: AP→BL Papp
  Papp A→B at 30 min: 0.106 ± 0.01 ×10⁻⁶ cm/s
[2]; Caco-2, 30 min, read-out: BL→AP Papp
  Papp B→A at 30 min: 0.011 ± 0.01 ×10⁻⁶ cm/s
[2]; Caco-2, 60 min, read-out: AP→BL Papp
  Papp A→B at 60 min: 0.318 ± 0.06 ×10⁻⁶ cm/s
[2]; Caco-2, 60 min, read-out: BL→AP Papp
  Papp B→A at 60 min: 0.117 ± 0.02 ×10⁻⁶ cm/s
[2]; Caco-2, 120 min, read-out: AP→BL Papp
  Papp A→B at 120 min: 2.23 ×10⁻⁶ cm/s
[2]; Caco-2, 120 min, read-out: BL→AP Papp
  Papp B→A at 120 min: 0.305 ×10⁻⁶ cm/s
[3]
  Efflux rate (%): 13.7% and 13.7 ± 0.5%
MEK1/2 and MEK5
  changes in the activity of upstream MEK1/2 and MEK5: did not cause any changes
MAPK2(h)
  Inhibition%: 56%
